Source: EPA's ToxValDB 9.5 (doi:10.2903/j.efsa.2012.2860)

Key:
Anas platyrhynchos = conditions: short-term; oral; feed; mortality
Canidae = conditions: chronic; duration: 1 years; oral; Dog Other; histopathology: nonneoplastic
Colinus virginianus = conditions: for LD50: acute, oral, mortality

What does the source list for `Cc1nn(C)c(F)c1C(=O)Nc1ccccc1C(C)CC(C)C` (stereo not given) [Penflufen]?
LD50 (Anas platyrhynchos): > 2210 mg/kg-day; NOAEL (Canidae): 7.7 mg/kg-day; LD50 (Colinus virginianus; diet): > 1700 mg/kg-day; LD50 (Colinus virginianus): > 4000 mg/kg-day; NOEL (Colinus virginianus; reproduction developmental): 96 mg/kg-day; NOAEL (Rattus norvegicus; acute, oral, F, clinical signs): 50 mg/kg-day; LD50 (Rattus norvegicus; acute, oral, mortality): > 2000 mg/kg-day; NOAEL (Rattus norvegicus; chronic, duration: 2 years, histopathology: nonneoplastic): 4 mg/kg-day; NOAEL (Rattus norvegicus; reproduction developmental, F, reproduction): 71 mg/kg-day; NOAEL (Rattus norvegicus; reproduction developmental, M, reproduction): 58 mg/kg-day
